Measured values from patent US6949655B2, “Acyclic piperidine derivatives” (priority 2001, dated 2005).

Test system: rat embryo ventral mesencephalic cells
Assay: Neuroprotection assay (NMDA-induced neuroexcitotoxic injury, 3H-dopamine uptake)
Type: cell-based, Sprague-Dawley rat
Details: VM cell culture, NMDA 100-400 μM for 20 hours, high affinity 3H-dopamine uptake
Description: The neuroprotective activity of the compounds of this invention may be assayed using rat embryo ventral mesencephalic cells in culture which are subsequently exposed to the glutamate receptor agonist NMDA. This assay is described in detail in the example section.
The ventral mesencephalic region was dissected out of embryonic day 15 Sprague-Dawley rat embryos (Harlan), dissociated into single cell suspension by a combination of trypsinization and trituration (Costantini et al., Neurobiol Dis., pp. 97-106 (1998). Dissociated VM cells were plated into poly-L-ornithine-coated 96-well plates at a density of 85,000 cells/well in 100 uL of DMEM supplemented with 18% heat-inactivated horse serum, 0.24% glucose, 2 mM glutamine and 50 u/ml pernicillin/streptomycin and incubated in a 5% CO2 incubator. After one day in culture (DIV1), the medium was replaced with 100 μL of a defined medium (DMEM supplemented with 1×N2 cocktail (Gibco-BRL), 0.12% glucose, 2 mM glutamine, and 50 units/ml penicillin/streptomycin) containing DMSO or various concentrations of the compounds of this invention. On DIV5, neuroexcitotoxic injury was induced by the addition of various concentrations of the glutamate receptor agonist NMDA (100-400 μM). Cultures were incubated with the neurotoxin for 20 hours and the effects of neurophilin compounds were assessed using high affinity ^3H-dopamine uptake according to a procedure published by Park and Mytilineou [Brain Res., 599, pp. 83-97 (1992)].

Row | SMILES | EC50 [nM]
1 | CN(C)CC(=O)N1CCC(Cc2ccccc2)CC1 [Compound 1] | > 500
2 | CCN(CC(=O)N1CCN(c2ccccc2)CC1)Cc1ccccc1 [Compound 2] | > 500
3 | C[C@H](c1ccccc1)N(C)CC(=O)N1CCN(c2ccccc2)CC1 [Compound 3] | > 500
4 | C[C@@H](c1ccccc1)N(C)CC(=O)N1CCN(c2ccccc2)CC1 [Compound 4] | > 500
5 | C[C@@H](C(=O)N1CCC(Cc2ccccc2)CC1)N(C)Cc1ccccc1 [Compound 5] | < 100
6 | CCN(CC(=O)N1CCC(Cc2ccccc2)CC1)Cc1ccccc1 [Compound 6] | 100 to 500
7 | C[C@H](c1ccccc1)N(C)CC(=O)N1CCC(Cc2ccccc2)CC1 [Compound 7] | 100 to 500
8 | C[C@@H](c1ccccc1)N(C)CC(=O)N1CCC(Cc2ccccc2)CC1 [Compound 8] | 100 to 500
9 | C[C@@H](C(=O)N1CCN(c2ccc(F)cc2)CC1)N(C)Cc1ccccc1 [Compound 9, 2-(Benzyl-methylamino)-1-[4-(4-fluorophenyl)-piperazin-1-yl]-propan-1-one] | < 100
10 | CN(C)C1(C(=O)N2CCC(Cc3ccccc3)CC2)CCc2ccccc21 (centres unmarked) [Compound 10] | 100 to 500
11 | C[C@@H](C(=O)N1CCC(Cc2ccc(F)cc2)CC1)N(C)Cc1ccccc1 [Compound 11, 2-(Benzyl-methylamino)-1-[4-(4-fluorobenzyl)-piperidin-1-yl]-propan-1-one] | < 100
12 | CN(C)CC(=O)N1CCN(C(c2ccc(F)cc2)c2ccc(F)cc2)CC1 [Compound 12] | > 500
13 | CCC(C)[C@@H](C(=O)N1CCC(Cc2ccccc2)CC1)N(C)Cc1ccccc1 (some centres unmarked) [Compound 13] | > 500
14 | O=C(CN(Cc1ccccc1)Cc1ccccc1)N1CCN(c2ccccc2)CC1 [Compound 14] | > 500
15 | O=C(CN(Cc1ccccc1)Cc1ccccc1)N1CCC(Cc2ccccc2)CC1 [Compound 15] | > 500
16 | CCN(CC(=O)N1CCN(C(c2ccc(F)cc2)c2ccc(F)cc2)CC1)Cc1ccccc1 [Compound 16] | > 500
17 | C[C@H](c1ccccc1)N(C)CC(=O)N1CCN(C(c2ccc(F)cc2)c2ccc(F)cc2)CC1 [Compound 17] | > 500
18 | C[C@@H](c1ccccc1)N(C)CC(=O)N1CCN(C(c2ccc(F)cc2)c2ccc(F)cc2)CC1 [Compound 18] | > 500
19 | C[C@@H](C(=O)N1CCN(C(c2ccc(F)cc2)c2ccc(F)cc2)CC1)N(C)Cc1ccccc1 [Compound 19, 2-(Benzyl-methylamino)-1-{4-[bis-4-(4-fluorophenyl)-methyl]-piperazin-1-yl]-propan-1-one] | 100 to 500
20 | O=C(CN(Cc1ccccc1)Cc1ccccc1)N1CCN(C(c2ccc(F)cc2)c2ccc(F)cc2)CC1 [Compound 20] | > 500
